Here are results for one compound from US20120082626A1, “USE OF R-BAMBUTEROL AS INHALED MEDICAMENT AND COMBINATION THERAPIES FOR TREATMENT OF RESPIRATORY DISORDERS” (priority 2009, published 2012).

In assay [1] the test system is OVA evoked asthma in sensitized guinea-pigs. The assay can be described thus: Relief of antigen-evoked asthma by inhalation after challenge in OVA sensitized guinea-pigs. The assay is classed as in vivo. As to conditions: nebulized drug inhaled after antigen challenge. An excerpt: In an embodiment of the invention, the ovalbumin (OVA) sensitized guinea-pigs were first challenged with nebulized antigen to evoke asthma, then the animals were allowed to inhale nebulized R-bambuterol or bambuterol. […] In a further embodiment of the invention, the sensitized guinea-pigs were first pretreated with nebulized R-bambuterol or bambuterol by inhalation. After three minutes, the same animals were challenged with nebulized antigen. […] The fast onset of action in the invention can also not be explained by Svenssion's in vitro metabolic study noted above that the dominate product is mono-carbamate bambuterol and litter terbutaline at initial phase., while the major amount of terbutaline will be formed at much later phase. (Svensson et al., 1988).

In assay [2] the test system is OVA evoked asthma in sensitized guinea pigs. Kind of assay: Airway resistance and dynamic pulmonary compliance after inhalation in OVA sensitized guinea pigs. The assay is classed as in vivo. As to conditions: n=8.
Setting [3] is: R-BM inhaled 504 μg/kg, OVA challenge.
Where [4] appears, read: after R-BM inhaled 504 μg/kg, before OVA challenge.

For `CN(C)C(=O)Oc1cc(OC(=O)N(C)C)cc([C@@H](O)CNC(C)(C)C)c1` [R-bambuterol], in assay [1], the “relief of asthmatic symptoms after inhalation” value was “immediately relieved within matter of tenths of seconds to a couple of minutes”. Further, in assay [2] (setting [3]), the “Cdyn (dynamic pulmonary compliance)” value was determined as 0.62 ± 0.02 and the “Raw (airway resistance)” value is given as 11.51 ± 1.09. In assay [2] (setting [4]), the “Cdyn (dynamic pulmonary compliance)” value is recorded as 0.70 ± 0.03 and the “Raw (airway resistance)” value was determined as 10.91 ± 0.41.
